Data on 19 molecules can be found in PMC8906008 (Antiviral Research, 2022).

Read-outs that look alike come from different tables or passages of the source.

The target in assay [1] is SARS-CoV-2 nsp5 (nsp4-5-6 WT) (Severe acute respiratory syndrome coronavirus 2, UniProt P0DTD1). Kind of assay: cell-based. The following applies: for inhibition at 10 µM: HEK-293T.
The test system of another assay is SARS-CoV-2. Kind of assay: microbe, parasite or virus in culture. It counts as cell-based.
In assay [2] the target is purified SARS-CoV-2 nsp5 protein (Severe acute respiratory syndrome coronavirus 2, UniProt P0DTD1). Kind of assay: biochemical.
The next assay relates to SARS-CoV-2 nsp5. The following applies: read-out: reported in vitro IC50; ref Ma et al., 2021; cited from earlier work.
The mark [3] stands for this setting: read-out: Secondary screen nsp5-WT RLU (%).
Where [4] appears, read: read-out: Primary screen nsp5-WT RLU (%).

For `CC(C)(C(=O)c1cccnc1)c1cccnc1` [compound 44, Metyrapone], the inhibition at 10 µM in assay [1] (setting [3]) is -1.4 ± 0.2%.
For the molecule `C1=C/COCc2cc(ccc2OCCN2CCCC2)Nc2nccc(n2)-c2cccc(c2)COC/1` [Compound #9, Pacritinib (SB1518)], the values for the inhibition at 10 µM in assay [1] (setting [4]) and in assay [1] (setting [3]) were 28.2% and 15.3 ± 1.3%, respectively.
In the same order, the values of `Cc1nc(Nc2ncc(C(=O)Nc3c(C)cccc3Cl)s2)cc(N2CCN(CCO)CC2)n1` [compound 21, Dasatinib (BMS-354825)] are 11.6% and 10.7 ± 1.7%.
For UNC2881 [compound 1], in assay [1], the “Primary screen nsp5-WT RLU (%)” value came to 29.5% and the “Secondary screen nsp5-WT RLU (%)” value worked out at 18.2 ± 0.5%.
For the molecule `Cc1cnc(Nc2ccc(OCCN3CCCC3)cc2)nc1Nc1cccc(S(=O)(=O)NC(C)(C)C)c1` [compound 6, Fedratinib (SAR302503)], the inhibition at 10 µM in assay [1] (setting [4]) was determined as 32.7%; in assay [1] (setting [3]), 57.6 ± 8.6%.
The like results for `CC(C)(C)c1cnc(CSc2cnc(NC(=O)C3CCNCC3)s2)o1` [compound 17, SNS-032 (BMS-387032)] were, in that order, 15.7% and 10.7 ± 1.1%.
With `C=CC(=O)Nc1cc(Nc2nccc(-c3cn(C)c4ccccc34)n2)c(OC)cc1N(C)CCN(C)C` [compound 23, Osimertinib (AZD9291)], in assay [1], the “Primary screen nsp5-WT RLU (%)” value is on record as 10.1% and the “Secondary screen nsp5-WT RLU (%)” value is listed as 8.3 ± 2.3%.
As for `CC[C@@H]1C(=O)N(C)c2cnc(Nc3ccc(C(=O)N[C@H]4CC[C@H](N5CCN(CC6CC6)CC5)CC4)cc3OC)nc2N1C(C)C` [compound 4, Volasertib (BI6727)], the inhibition at 10 µM in assay [1] (setting [4]) was found to be 83.9%; in assay [1] (setting [3]), 114 ± 8.9%.
The EC50 is the midpoint of the concentration-response curve. Broadly, the IC50 is the concentration that inhibits the measured activity by half. In the case of `COc1cc(NC(=O)Nc2cccc(CNC(=O)O[C@H]3CCOC3)c2)ccc1-c1cnco1` [compound 5, Merimepodib], in the assay on SARS-CoV-2 (EC50 to CC50 ratio, A549-ACE2 cells), the “SI (selectivity index)” value was determined as 1.5. For the same molecule, in the assay with SARS-CoV-2 (Severe acute respiratory syndrome coronavirus 2, A549-ACE2, read-out: EC50 inhibition of SARS-CoV-2 replication), the EC50 worked out at 21 µM. In addition, the IC50 in assay [2] is above 600 µM; in assay [1], below 50 µM. In addition, the “inhibition of nsp5 protease activity in vitro” value in assay [2] is “does not efficiently inhibit”. The inhibition at 10 µM in assay [1] (setting [4]) is 46.1%; in assay [1] (setting [3]), 39%.
With `COCCOc1ccc2c(c1)ncn2-c1ccc2cccc(N3CCC(N)CC3)c2n1` [compound 12, CP 673451], the inhibition at 10 µM came out at 19.4% in assay [1] (setting [4]) and 13.9 ± 0.9% in assay [1] (setting [3]).
In the case of `Cc1cnc(Nc2ccc(N3CCN(C)CC3)cc2)nc1Nc1cccc(S(=O)(=O)NC(C)(C)C)c1` [compound 8, TG101209], in assay [1], the “Primary screen nsp5-WT RLU (%)” value was found to be 30.0% and the “Secondary screen nsp5-WT RLU (%)” value is 34.9 ± 4.0%.
For the molecule `CNCc1ccc(C)c(NC(=O)c2ccc(Nc3nc(-c4ccccc4)c4ccccc4n3)cc2)c1` [compound 16, BMS-833923 (XL139)], the values for the inhibition at 10 µM in assay [1] (setting [4]) and in assay [1] (setting [3]) were 16.4% and 16.2 ± 2.1%, respectively.
In the same order, the values of `O=C(Nc1c[nH]nc1-c1nc2ccc(CN3CCOCC3)cc2[nH]1)NC1CC1` [compound 10, AT9283] are 24% and 14.7 ± 0.8%.
As to `O=C(NC(Cc1cc(=O)[nH]c2ccccc12)C(=O)O)c1ccc(Cl)cc1` (stereo not drawn) [compound 43, Rebamipide], the inhibition at 10 µM in assay [1] (setting [3]) is -1.5 ± 0.5%.
Regarding `CCOC(=O)C1=C(C)NC(C)=C(C(=O)OCC)C1c1ccccc1/C=C/C(=O)OC(C)(C)C` [compound 3, Lacidipine], the inhibition at 10 µM in assay [1] (setting [4]) came out at 10.2%; in assay [1] (setting [3]) it was 8.9 ± 0.7%.
`CC(C)(C)NC(=O)N[C@H](C(=O)N1C[C@H]2[C@@H]([C@H]1C(=O)NC(CC1CCC1)C(=O)C(N)=O)C2(C)C)C(C)(C)C` (stereo partly drawn) [Boceprevir]: the half-inhibitory concentration (IC50) with SARS-CoV-2 nsp5 was […].
With `C=CC(=O)Nc1cccc(Nc2nc(Nc3ccc(N4CCN(C(C)=O)CC4)cc3OC)ncc2C(F)(F)F)c1` [compound 20, Rociletinib (CO-1686. AVL-301)], the inhibition at 10 µM in assay [1] (setting [4]) stood at 13.3%; in assay [1] (setting [3]) it was 9.7 ± 1.9%.
Turning to `CCCC(NC(=O)C(CC(C)C)NC(=O)OCc1ccccc1)C(=O)C(=O)NCc1ccccn1` (stereo not drawn) [Calpain Inhibitor XII], the 50% inhibitory concentration (IC50) in the assay on SARS-CoV-2 nsp5 was […].
For the molecule `Cc1sc2c(c1C)C(c1ccc(Cl)cc1)=N[C@@H](CC(=O)Nc1ccc(O)cc1)c1nnc(C)n1-2` [compound 7, OTX015], the inhibition at 10 µM in assay [1] (setting [4]) was 31.8%; in assay [1] (setting [3]), 31.5 ± 11%.
